ChEMBL document CHEMBL1201862, “PubChem BioAssay data set” (2004)
Values joined by “and” are separate entries in the source; they are usually repeats but may differ in a detail not shown here. Equal entries are not always repeated.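 Growth conditions: 96-well plates. Treatment: test compound, 48 hours, 5 concentrations. Analysis: linear interpolation between bracketing concentrations; unreached endpoints set to highest concentration. GI50: concentration for 50% inhibition of growth.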 Active and inactive are the calls of the source. Rule as the data show it: active = GI50 up to about 1.1 µM and inactive = higher.

Experiments:
Test in all cases: growth of human tumour cells (NCI), 48 h
[1] = tested on: DLD-1
[2] = tested on: DMS-114
[3] = tested on: DMS-273
[4] = tested on: HOP-18
[5] = tested on: KM-20L2
[6] = tested on: M19-MEL
[7] = tested on: RXF 631
[8] = tested on: SNB-78
[9] = tested on: XF498

Row | SMILES | GI50 [1] | GI50 [2] | GI50 [3] | GI50 [4] | GI50 [5] | GI50 [6] | GI50 [7] | GI50 [8] | GI50 [9]
1 | Cc1cc(N(CCC#N)CCC#N)ccc1/C=C1\N=C(c2cc([N+](=O)[O-])ccc2Cl)N(c2cccc(Cl)c2)C1=O | > 100 µM (inactive) | > 100 µM (inactive) | > 100 µM (inactive) | > 100 µM (inactive) | > 100 µM (inactive) | > 100 µM (inactive) | > 100 µM (inactive) | > 100 µM (inactive) | –
2 | O=c1cc(-c2ccccc2)oc2cc(OCCSCCCCCCCCCCSCCOc3ccc4c(=O)cc(-c5ccccc5)oc4c3)ccc12 | > 100 µM (inactive) | > 100 µM (inactive) | – | > 100 µM (inactive) | > 100 µM (inactive) | > 100 µM (inactive) | > 100 µM (inactive) | 68.2 µM (inactive) | –
3 | O=C(O)c1[nH]c(C(=O)O)c(CC(F)(F)C(F)(F)C(F)(F)F)c1CC(F)(F)C(F)(F)C(F)(F)F | > 100 µM (inactive) | > 100 µM (inactive) | > 100 µM (inactive) | > 100 µM (inactive) | > 100 µM (inactive) | > 100 µM (inactive) | > 100 µM (inactive) | > 100 µM (inactive) | > 100 µM (inactive)
4 | Nc1nc(N)c(CCCCc2ccc([N+](=O)[O-])cc2)c(N)n1 | 27 µM (inactive) | 20.8 µM (inactive) | 11.6 µM (inactive) | > 100 µM (inactive) | 36.1 µM (inactive) | > 100 µM (inactive) | – | > 100 µM (inactive) | > 100 µM (inactive)
5 | COC1/C(=C\C(=O)OC(C)(C)C)c2ccccc2N1C(C)=O (stereo not given) | > 100 µM (inactive) | 54.3 µM (inactive) | > 100 µM (inactive) | > 100 µM (inactive) | > 100 µM (inactive) | > 100 µM (inactive) | > 100 µM (inactive) | > 100 µM (inactive) | 57.5 µM (inactive)
6 | COC(=O)/C(=C/c1ccc(OC)cc1)NC(=O)c1ccccc1 | > 100 µM (inactive) | > 100 µM (inactive) | – | – | > 100 µM (inactive) | – | – | – | –
7 | CNC(=O)NCCCC(NC(C)=O)C(=O)NCc1ccccc1 (stereo not given) | > 100 µM (inactive) | > 100 µM (inactive) | > 100 µM (inactive) | – | > 100 µM (inactive) | > 100 µM (inactive) | > 100 µM (inactive) | > 100 µM (inactive) | –
8 | O=C1/C(=C\c2ccccc2)C2/C(=C\c3ccccc3)C(=O)/C(=C\c3ccccc3)C2/C1=C\c1ccccc1 (stereo not given) | 1.22 µM (inactive) | 1.73 µM (inactive) | 0.964 µM (active) | 48 µM (inactive) | 1.78 µM (inactive) | 1.53 µM (inactive) | 3.12 µM (inactive) | – | –
9 | Nc1ncnc2c1ncn2C1CC(OCc2ccccc2[N+](=O)[O-])C(CO)O1 (stereo not given) | 23.7 µM (inactive) | 16.4 µM (inactive) | 18.4 µM (inactive) | 26.6 µM (inactive) | 22.2 µM (inactive) | 16.1 µM (inactive) | – | 18.2 µM (inactive) | 42.2 µM (inactive)
10 | CCOC(=O)CCn1ncc(Cl)c(Cl)c1=O | 5.5 µM (inactive) | 2.1 µM (inactive) | 9.46 µM (inactive) | 3.99 µM (inactive) | 14.2 µM (inactive) | 2.58 µM (inactive) | 2.97 µM (inactive) | 6.22 µM (inactive) | 20.5 µM (inactive)
11 | COc1ccc(/C=c2/sc3n(c2=O)NC(c2ccc(Cl)cc2)NN=3)cc1 (stereo not given) | > 100 µM (inactive) | 58.5 µM (inactive) | > 100 µM (inactive) | – | > 100 µM (inactive) | > 100 µM (inactive) | – | > 100 µM (inactive) | 51.8 µM (inactive)
12 | COc1ccc(OC)c(/C=C/[N+](=O)[O-])c1 | 2.88 µM (inactive) | 4.74 µM (inactive) | 2.61 µM (inactive) | 1.85 µM (inactive) | 4.69 µM (inactive) | 2.39 µM (inactive) | 2.83 µM (inactive) | 6.84 µM (inactive) | 2.94 µM (inactive)
13 | CCCCCC(=O)Cc1cc(OC)cc2c1C(=O)Oc1cc(O)c(C(=O)O)c(CC(=O)CCCCC)c1O2 | 35.6 µM (inactive) | 33.9 µM (inactive) | 32.1 µM (inactive) | – | 49.4 µM (inactive) | 26.2 µM (inactive) | 35.6 µM (inactive) | 44.4 µM (inactive) | > 100 µM (inactive)
14 | C=CCN1/C(=C2\SC(=S)N(c3ccc(C)cc3)C2=O)Sc2c1nc[nH]c2=O | > 100 µM (inactive) | 76.9 µM (inactive) | > 100 µM (inactive) | – | > 100 µM (inactive) | > 100 µM (inactive) | – | > 100 µM (inactive) | > 100 µM (inactive)
15 | O=C(c1ccccc1)C1OC12C(=O)Nc1ccccc12 (stereo not given) | 32.7 µM (inactive) | 27 µM (inactive) | 38 µM (inactive) | – | 28.1 µM (inactive) | 30.4 µM (inactive) | 46 µM (inactive) | 43.5 µM (inactive) | 26.2 µM (inactive)
16 | Nc1nnc2c(-c3ccccc3)n[nH]c2n1 | – | > 100 µM (inactive) | 50.9 µM (inactive) | – | 49.8 µM (inactive) | – | – | 49.3 µM (inactive) | –
17 | CSc1nnc2n1-c1ccccc1SCC2 | > 100 µM (inactive) | > 100 µM (inactive) | > 100 µM (inactive) | > 100 µM (inactive) | > 100 µM (inactive) | > 100 µM (inactive) | – | > 100 µM (inactive) | > 100 µM (inactive)
18 | COc1cc2cc[n+]3c4cc(OC)c(OC)cc4c(C)cc3c2cc1OC | > 100 µM (inactive) | > 100 µM (inactive) | > 100 µM (inactive) | > 100 µM (inactive) | > 100 µM (inactive) | > 100 µM (inactive) | > 100 µM (inactive) | > 100 µM (inactive) | > 100 µM (inactive)
19 | COc1nc(/C=N/NC(N)=S)nc(OC)n1 | > 100 µM (inactive) | 47.5 µM (inactive) | 56.9 µM (inactive) | > 100 µM (inactive) | 35.4 µM (inactive) | 65.3 µM (inactive) | 44.2 µM (inactive) | > 100 µM (inactive) | > 100 µM (inactive)
20 | CCCCCCCCCCCCCP(=O)(O)OCC | > 100 µM (inactive) | > 100 µM (inactive) | – | > 100 µM (inactive) | > 100 µM (inactive) | > 100 µM (inactive) | > 100 µM (inactive) | > 100 µM (inactive) | –
21 | CC(C)OP(=S)(NC(=S)c1ccccc1)OC(C)C | > 100 µM (inactive) | 78 µM (inactive) | > 100 µM (inactive) | – | > 100 µM (inactive) | – | – | > 100 µM (inactive) | > 100 µM (inactive)
22 | CC1(C)OC2C(O1)[C@H]1OC(C(Cl)(Cl)Cl)=N[C@H]1C(I)[C@H]2N1C(=O)c2ccccc2C1=O (stereo not given in full) | > 100 µM (inactive) | 30.6 µM (inactive) | 52.1 µM (inactive) | > 100 µM (inactive) | 60.4 µM (inactive) | 69.8 µM (inactive) | – | 73.3 µM (inactive) | –
23 | NCCCC1NC(=O)/C(=C(O)/C=C/C2CCC[C@@H]2CC2SCCS2)C1=O (stereo not given in full) | > 100 µM (inactive) | 86.3 µM (inactive) | 74.8 µM (inactive) | 82.6 µM (inactive) | > 100 µM (inactive) | > 100 µM (inactive) | – | – | –
24 | COC(=O)CC(C(C(C)=O)C(=O)OCc1ccccc1)N1C(=O)OC(c2ccccc2)C1c1ccccc1 (stereo not given) | 64.7 µM (inactive) | 30.5 µM (inactive) and 39.4 µM (inactive) | > 100 µM (inactive) and 78.5 µM (inactive) | – | – | 85.1 µM (inactive) and 73.8 µM (inactive) | 89.7 µM (inactive) | – | 67.1 µM (inactive)
25 | c1ccc2c(CNCCCCCCCCNCc3cccc4ccccc34)cccc2c1 | 2.11 µM (inactive) | 1.91 µM (inactive) | 2.01 µM (inactive) | 5.41 µM (inactive) | 1.75 µM (inactive) | 1.73 µM (inactive) | – | 2.24 µM (inactive) | 1.79 µM (inactive)
26 | CC(CN1CC(=O)NC(=O)C1)N1CC(=O)NC(=O)C1 (stereo not given) [RAZOXANE] | 245 µM (inactive) | 67.9 µM (inactive) | 513 µM (inactive) | 277 µM (inactive) | 174 µM (inactive) | 299 µM (inactive) | – | 449 µM (inactive) | 234 µM (inactive)
27 | C1=Cc2nc1c(-c1ccccc1)c1nc(c(-c3ccccc3)c3ccc([nH]3)c(-c3ccccc3)c3ccc([nH]3)c2-c2ccccc2)C=C1 [TETRAPHENYLPORPHYRIN] | > 100 µM (inactive) | > 100 µM (inactive) | > 100 µM (inactive) | > 100 µM (inactive) | > 100 µM (inactive) | > 100 µM (inactive) | > 100 µM (inactive) | > 100 µM (inactive) | –
